Results as given in ChEMBL document CHEMBL1201862, “PubChem BioAssay data set” (2004).
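Interpolation was linear, between the two tested concentrations surrounding the appropriate level; five concentrations were tested over 48 hours in 96-well plates. Abbreviation: GI50, concentration required for 50% inhibition of growth.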 Activity calls are given as the source filed them. No stated cut-off is given here; in the data, active = GI50 up to about 1.1 µM and inactive = higher.

Assays:
Assay in all cases: NCI anticancer screen, dose series, 48 h
M14 = tested on: M14
OVCAR-8 = tested on: OVCAR-8
KM12 = tested on: KM12
HOP-62 = tested on: HOP-62
CCRF-CEM = tested on: CCRF-CEM
HOP-18 = tested on: HOP-18
OVCAR-5 = tested on: OVCAR-5
SK-MEL-5 = tested on: SK-MEL-5
786-0 = tested on: 786-0
NCI-H522 = tested on: NCI-H522
OVCAR-3 = tested on: OVCAR-3
OVCAR-4 = tested on: OVCAR-4
CAKI-1 = tested on: CAKI-1
SR = tested on: SR
UACC-62 = tested on: UACC-62
KM-20L2 = tested on: KM-20L2
SK-OV-3 = tested on: SK-OV-3
HCC 2998 = tested on: HCC 2998
LOX IMVI = tested on: LOX IMVI
NCI/ADR-RES = tested on: NCI/ADR-RES

| SMILES | GI50 (M14) | GI50 (OVCAR-8) | GI50 (KM12) | GI50 (HOP-62) | GI50 (CCRF-CEM) | GI50 (HOP-18) | GI50 (OVCAR-5) | GI50 (SK-MEL-5) | GI50 (786-0) | GI50 (NCI-H522) | GI50 (OVCAR-3) | GI50 (OVCAR-4) | GI50 (CAKI-1) | GI50 (SR) | GI50 (UACC-62) | GI50 (KM-20L2) | GI50 (SK-OV-3) | GI50 (HCC 2998) | GI50 (LOX IMVI) | GI50 (NCI/ADR-RES) |
| --- | --- | --- | --- | --- | --- | --- | --- | --- | --- | --- | --- | --- | --- | --- | --- | --- | --- | --- | --- | --- |
| COC(=O)CC1CC2(C(=O)OC)c3[nH]c4ccccc4c3CCN2C1=O (stereo not drawn) | > 100 µM (inactive) | > 100 µM (inactive) | > 100 µM (inactive) | > 100 µM (inactive) | > 100 µM (inactive) | > 100 µM (inactive) | > 100 µM (inactive) | > 100 µM (inactive) | > 100 µM (inactive) | > 100 µM (inactive) | > 100 µM (inactive) | > 100 µM (inactive) | > 100 µM (inactive) | > 100 µM (inactive) | > 100 µM (inactive) | > 100 µM (inactive) | > 100 µM (inactive) | > 100 µM (inactive) | > 100 µM (inactive) | – |
| CC(=O)Nc1ccc(C2=N/C(=C\c3ccc(Cl)cc3)C(=O)O2)cc1 | 25.5 µM (inactive) | 32.1 µM (inactive) | 33.1 µM (inactive) | > 100 µM (inactive) | 26.7 µM (inactive) | > 100 µM (inactive) | > 100 µM (inactive) | 77.8 µM (inactive) | 20.8 µM (inactive) | 25.4 µM (inactive) | 27.8 µM (inactive) | 65 µM (inactive) | > 100 µM (inactive) | 18.7 µM (inactive) | 40.6 µM (inactive) | 84.7 µM (inactive) | 30.7 µM (inactive) | 20 µM (inactive) | 18.4 µM (inactive) | – |
| O=C1/C(=C/c2ccc(O)cc2)CCC1CNc1ccc(Cl)cc1 (stereo not drawn) | 0.643 µM (active) | 1.38 µM (inactive) | 0.895 µM (active) | 7.43 µM (inactive) | 0.624 µM (active) | 6.08 µM (inactive) | 10.1 µM (inactive) | 4.66 µM (inactive) | 1.83 µM (inactive) | 0.552 µM (active) | 2.28 µM (inactive) | 2.96 µM (inactive) | 1.55 µM (inactive) | 0.914 µM (active) | 0.367 µM (active) | 0.579 µM (active) | 5.14 µM (inactive) | 3.93 µM (inactive) | 0.27 µM (active) | 5.45 µM (inactive) |
| C/C(=N\NC(=S)N1CCN(c2ccccn2)CC1)c1nccs1 | 0.16 µM (active) | 0.258 µM (active) | 0.485 µM (active) | 1.19 µM (inactive) | 0.01 µM (active) | 2.92 µM (inactive) | 0.867 µM (active) | 0.219 µM (active) | 0.305 µM (active) | – | – | 1.03 µM (active) | 2.42 µM (inactive) | – | 0.122 µM (active) | < 0.0294 µM (active) | 1.61 µM (inactive) | 0.675 µM (active) | 0.405 µM (active) | 0.0339 µM (active) |
| Cc1cc(Br)cc(C)c1NC(=O)C(=O)CC(=O)c1sc(-n2nc(-c3ccccc3)cc2-c2ccccc2)nc1C | > 100 µM (inactive) | > 100 µM (inactive) | > 100 µM (inactive) | > 100 µM (inactive) | > 100 µM (inactive) | > 100 µM (inactive) | > 100 µM (inactive) | – | > 100 µM (inactive) | > 100 µM (inactive) | > 100 µM (inactive) | > 100 µM (inactive) | > 100 µM (inactive) | > 100 µM (inactive) | > 100 µM (inactive) | > 100 µM (inactive) | > 100 µM (inactive) | > 100 µM (inactive) | > 100 µM (inactive) | – |
| Cc1cccc(NC(=O)C(=O)C(C2OC(=O)c3ccccc32)[N+](=O)[O-])c1C (stereo not drawn) | 13.8 µM (inactive) | 13.2 µM (inactive) | 12.8 µM (inactive) | 17.2 µM (inactive) | 3.52 µM (inactive) | 10.5 µM (inactive) | 19.1 µM (inactive) | 6.53 µM (inactive) | 10.2 µM (inactive) | 2 µM (inactive) | 2.08 µM (inactive) | 8.11 µM (inactive) | 7.43 µM (inactive) | 3.13 µM (inactive) | 10.9 µM (inactive) | 18.4 µM (inactive) | 13.6 µM (inactive) | 13.8 µM (inactive) | 2.4 µM (inactive) | – |
| CCc1cccc(C)c1NC(=S)NC(=O)c1ccccc1C(=O)NC(=S)Nc1c(C)cccc1CC | > 100 µM (inactive) | 95.1 µM (inactive) | 77.1 µM (inactive) | > 100 µM (inactive) | 36.3 µM (inactive) | 50.7 µM (inactive) | > 100 µM (inactive) | > 100 µM (inactive) | > 100 µM (inactive) | 18.2 µM (inactive) | 23.8 µM (inactive) | 69.3 µM (inactive) | 56.2 µM (inactive) | 38.4 µM (inactive) | 37.7 µM (inactive) | 91.8 µM (inactive) | > 100 µM (inactive) | 90.6 µM (inactive) | > 100 µM (inactive) | – |
| COC(=O)c1cccc2c3ccccc3c3ccccc3c12 | 28.5 µM (inactive) | 24.4 µM (inactive) | 39.5 µM (inactive) | > 100 µM (inactive) | 27.5 µM (inactive) | 26.9 µM (inactive) | 49.1 µM (inactive) | 30.1 µM (inactive) | 42.8 µM (inactive) | 36.4 µM (inactive) | 21.4 µM (inactive) | 64.3 µM (inactive) | 40.4 µM (inactive) | 36.8 µM (inactive) | 24.3 µM (inactive) | 41.8 µM (inactive) | 37.2 µM (inactive) | 43.1 µM (inactive) | 29.4 µM (inactive) | – |
| Cc1cccc(C(C)(C)C)c1NC(=O)CCl | > 100 µM (inactive) | > 100 µM (inactive) | > 100 µM (inactive) | > 100 µM (inactive) | > 100 µM (inactive) | > 100 µM (inactive) | – | > 100 µM (inactive) | > 100 µM (inactive) | > 100 µM (inactive) | > 100 µM (inactive) | > 100 µM (inactive) | > 100 µM (inactive) | > 100 µM (inactive) | > 100 µM (inactive) | > 100 µM (inactive) | > 100 µM (inactive) | > 100 µM (inactive) | > 100 µM (inactive) | – |
| CSc1cc(C(C)(C)C)ccc1C(O)c1ccc(C(C)(C)C)cc1SC | 12.2 µM (inactive) | 11.4 µM (inactive) | 11.5 µM (inactive) | 13.5 µM (inactive) | 10.9 µM (inactive) | 15.5 µM (inactive) | 14 µM (inactive) | 14.4 µM (inactive) | 10.8 µM (inactive) | 10.2 µM (inactive) | 12.4 µM (inactive) | 10.9 µM (inactive) | 11.3 µM (inactive) | 10.2 µM (inactive) | 15.3 µM (inactive) | 11 µM (inactive) | 17.5 µM (inactive) | 18.2 µM (inactive) | 12 µM (inactive) | – |
| Cn1c(=O)c(C(c2ccccc2)c2c(O)c3ccccc3n(C)c2=O)c(O)c2ccccc21 | > 100 µM (inactive) | > 100 µM (inactive) | > 100 µM (inactive) | – | – | > 100 µM (inactive) | 23.2 µM (inactive) | > 100 µM (inactive) | > 100 µM (inactive) | > 100 µM (inactive) | > 100 µM (inactive) | 53.6 µM (inactive) | > 100 µM (inactive) | 45.5 µM (inactive) | > 100 µM (inactive) | > 100 µM (inactive) | > 100 µM (inactive) | > 100 µM (inactive) | > 100 µM (inactive) | – |
| CC(C)CCCC(C)[C@H]1CCC2[C@H]3C(CC[C@@]21C)[C@@]1(C)CCC=C[C@]12C[C@@H]2[C@@H]3O (stereo partly drawn) | > 100 µM (inactive) | > 100 µM (inactive) | > 100 µM (inactive) | > 100 µM (inactive) | > 100 µM (inactive) | > 100 µM (inactive) | > 100 µM (inactive) | > 100 µM (inactive) | > 100 µM (inactive) | > 100 µM (inactive) | > 100 µM (inactive) | > 100 µM (inactive) | > 100 µM (inactive) | > 100 µM (inactive) | > 100 µM (inactive) | > 100 µM (inactive) | > 100 µM (inactive) | > 100 µM (inactive) | > 100 µM (inactive) | – |
| CC(C)[Si](OCC1CC(C#N)OC(C)(C)O1)(C(C)C)C(C)C (stereo not drawn) | 20 µM (inactive) | 21.1 µM (inactive) | 17.5 µM (inactive) | 23.7 µM (inactive) | 19.5 µM (inactive) | 30.5 µM (inactive) | 44 µM (inactive) | 15.5 µM (inactive) | 18.8 µM (inactive) | 18.2 µM (inactive) | 15.6 µM (inactive) | 30.3 µM (inactive) | 27.6 µM (inactive) | 18.1 µM (inactive) | 30.1 µM (inactive) | 21.9 µM (inactive) | 21.3 µM (inactive) | 21.2 µM (inactive) | 19.3 µM (inactive) | – |
| C=C1CC[C@@H]2C(C)(C)C(O)CCC2(C)C1COc1ccc2ccc(=O)oc2c1 (stereo partly drawn) | 18.6 µM (inactive) | 17.2 µM (inactive) | 15.6 µM (inactive) | 19.1 µM (inactive) | 13.4 µM (inactive) | 19.6 µM (inactive) | – | – | 21.5 µM (inactive) | 16.3 µM (inactive) | 17.9 µM (inactive) | 13.5 µM (inactive) | – | 23.6 µM (inactive) | 15.8 µM (inactive) | 19.1 µM (inactive) | 23.4 µM (inactive) | 19.9 µM (inactive) | 16.8 µM (inactive) | – |
